Experimental data reported in patent US20200048259A1, “KDM5 INHIBITORS” (priority 2016, published 2020).
Where two headings read alike, the source gives them in different places.

Biological target: T1, Full-length KDM5B enzyme (Homo sapiens, UniProt Q9UGL1)
T1 construct: recombinant protein from baculovirus-transfected Sf21 cells: full-length KDM5B; MW=176.825 kDa; host or cells: baculovirus-transfected Sf21 insect cells
Assay: KDM5B TR-FRET Enzyme Activity Assay (LANCE)
Assay type: biochemical
Method: KDM5B TR-FRET Enzyme Activity Assay
KDM5B enzymatic activity was determined with the LANCE (Lanthanide Chelate Excite) TR-FRET (Time-resolved fluorescence resonance energy transfer) assay. […] Following a 30 minutes compound and enzyme incubation in a humidified chamber, each reaction was initiated by the addition of 1 μL 1× assay buffer containing […] biotinylated H3K4Me3 peptide, and 500 nM α-ketoglutarate. The final reaction in each well of 5 μL consists of 5 nM KDM5B, 500 nM biotinylated-peptide, and 500 nM α-ketoglutarate. De-methylation reactions were allowed to proceed for 60 minutes. Reactions were immediately quenched by the addition of 5 μL of 2× Lance Detection Buffer (PerkinElmer) with 0.5 mM EDTA and 2 nM of Eu-anti-H3K4Mel-2 antibody, and 30 nM of Streptavidin-conjugated Dylight 650 detection reagents. After 60 minutes incubation with detection reagents, reaction plates were read on a PerkinElmer EnVision plate reader using standard TR-FRET protocol. Briefly, excitation of donor molecules (Eu-chelate-anti-H3K4Me1-2-antibody) with a laser light source at 337 nm produces energy that can be transferred to Dylight-650 acceptor molecules if this donor:acceptor pair is within close proximity.
Fluorescence intensity at both 665 nm (acceptor) and 615 nm (donor) are measured and a TR-FRET ratio calculated for each well (acceptor intensity/donor intensity). IC50 values were determined by 4 parameter robust fit of TR-FRET ratio values vs. (Log 10) compound concentrations.

[1] = 5 nM full-length KDM5B, biotinylated H3K4Me3 peptide, 500 nM α-ketoglutarate, ten point titration 100000 nM to 5.08 nM, read-out: IC50

T1 sequence (Q9UGL1 whole entry): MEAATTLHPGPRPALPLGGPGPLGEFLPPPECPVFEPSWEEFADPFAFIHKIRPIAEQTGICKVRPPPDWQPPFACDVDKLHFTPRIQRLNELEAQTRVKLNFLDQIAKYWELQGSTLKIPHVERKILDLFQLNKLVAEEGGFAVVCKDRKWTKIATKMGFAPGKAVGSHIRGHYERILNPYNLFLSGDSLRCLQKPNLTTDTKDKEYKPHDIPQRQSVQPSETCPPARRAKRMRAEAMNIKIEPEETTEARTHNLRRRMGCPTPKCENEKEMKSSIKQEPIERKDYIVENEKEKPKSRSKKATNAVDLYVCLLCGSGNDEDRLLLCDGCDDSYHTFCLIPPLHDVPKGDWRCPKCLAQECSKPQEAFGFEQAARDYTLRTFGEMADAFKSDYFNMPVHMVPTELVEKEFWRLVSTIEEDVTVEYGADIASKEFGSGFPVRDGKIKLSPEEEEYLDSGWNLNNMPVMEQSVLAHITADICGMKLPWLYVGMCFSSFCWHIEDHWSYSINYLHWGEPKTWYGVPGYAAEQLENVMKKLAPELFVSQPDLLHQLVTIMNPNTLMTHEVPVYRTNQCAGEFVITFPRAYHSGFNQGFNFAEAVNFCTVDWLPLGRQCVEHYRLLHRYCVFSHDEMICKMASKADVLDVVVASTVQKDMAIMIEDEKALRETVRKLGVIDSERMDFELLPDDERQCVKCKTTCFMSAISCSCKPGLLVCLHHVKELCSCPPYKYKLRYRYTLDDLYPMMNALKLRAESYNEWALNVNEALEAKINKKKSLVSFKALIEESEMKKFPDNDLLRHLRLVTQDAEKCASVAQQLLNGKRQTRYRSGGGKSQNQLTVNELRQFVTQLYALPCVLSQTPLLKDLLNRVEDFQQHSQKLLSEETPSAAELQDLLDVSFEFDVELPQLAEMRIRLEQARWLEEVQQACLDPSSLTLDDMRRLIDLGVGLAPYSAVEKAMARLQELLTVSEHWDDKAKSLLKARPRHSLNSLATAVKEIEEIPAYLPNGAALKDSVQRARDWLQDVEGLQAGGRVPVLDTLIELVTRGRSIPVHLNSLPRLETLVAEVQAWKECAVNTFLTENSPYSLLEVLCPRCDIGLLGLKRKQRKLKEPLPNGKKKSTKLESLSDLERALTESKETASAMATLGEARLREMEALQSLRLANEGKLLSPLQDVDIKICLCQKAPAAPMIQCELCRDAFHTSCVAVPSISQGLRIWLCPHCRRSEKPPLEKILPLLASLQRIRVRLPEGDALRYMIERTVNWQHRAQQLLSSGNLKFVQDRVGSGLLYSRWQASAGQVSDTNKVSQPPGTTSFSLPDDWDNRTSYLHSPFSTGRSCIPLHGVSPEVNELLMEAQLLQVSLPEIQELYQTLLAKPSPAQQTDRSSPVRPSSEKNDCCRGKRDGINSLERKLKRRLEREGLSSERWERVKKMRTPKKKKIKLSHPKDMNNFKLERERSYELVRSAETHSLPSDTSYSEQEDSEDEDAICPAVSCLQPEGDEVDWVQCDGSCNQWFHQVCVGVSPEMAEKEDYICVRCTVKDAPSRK

| Structure (SMILES) | IC50 [1] [µM] | IC50 [µM] |
| --- | --- | --- |
| CCCc1cc(=O)n2nc(C)nc2[nH]1 [Example 7-2, 2-methyl-5-propyl[1,2,4]triazolo[1,5-a]pyrimidin-7(4H)-one] | 97 |  |
| Cc1nc2[nH]c(C)c(Cc3ccccc3)c(=O)n2n1 [Example 7-4, 6-benzyl-2,5-dimethyl[1,2,4]triazolo[1,5-a]pyrimidin-7(4H)-one] |  | > 100 |
| Cc1nc2[nH]c(C(C)C)cc(=O)n2n1 [Example 7-6, 2-methyl-5-(1-methylethyl)[1,2,4]triazolo[1,5-a]pyrimidin-7(4H)-one] |  | > 100 |
| CCCCc1c(C)[nH]c2nc(C)nn2c1=O [Example 7-8, 6-butyl-2,5-dimethyl[1,2,4]triazolo[1,5-a]pyrimidin-7(4H)-one] |  | > 100 |
| CCc1cc(=O)n2nc(C)nc2[nH]1 [Example 7-12, 5-ethyl-2-methyl-[1,2,4]triazolo[1,5-a]pyrimidin-7(4H)-one] | 73.7 |  |
| COC(=O)Cc1c(C)[nH]c2nc(C(=O)OC)nn2c1=O [Example 7-15, methyl 6-(2-methoxy-2-oxoethyl)-5-methyl-7-oxo-4,7-dihydro[1,2,4]triazolo[1,5-a]pyrimidine-2-carboxylate] | 68.1 |  |
| Cc1[nH]c2nc(C3CCC3)nn2c(=O)c1C(C)C [Example 7-19, 2-cyclobutyl-5-methyl-6-(1-methylethyl)[1,2,4]triazolo[1,5-a]pyrimidin-7(4H)-one] | 92.7 |  |
| Cc1[nH]c2nc(C3CC(F)(F)C3)nn2c(=O)c1C(C)C [Example 7-23, 2-(3,3-difluorocyclobutyl)-5-methyl-6-(1-methylethyl)[1,2,4]triazolo[1,5-a]pyrimidin-7(4H)-one] |  | > 100 |
| Cc1[nH]c2nc(-c3ccc(C(F)(F)F)cc3)nn2c(=O)c1C(C)C [Example 7-25, 5-methyl-6-(1-methylethyl)-2-[4-(trifluoromethyl)phenyl][1,2,4]triazolo[1,5-a]pyrimidin-7(4H)-one] | 67.6 |  |
| Cc1[nH]c2nc(-c3ccccc3Cl)nn2c(=O)c1C(C)C [Example 7-26, 2-(2-chlorophenyl)-5-methyl-6-(1-methylethyl)[1,2,4]triazolo[1,5-a]pyrimidin-7(4H)-one] | 95.8 |  |
| Cc1[nH]c2nc(-c3ccco3)nn2c(=O)c1C(C)C [Example 7-27, 2-furan-2-yl-5-methyl-6-(1-methylethyl)[1,2,4]triazolo[1,5-a]pyrimidin-7(4H)-one] |  | > 100 |
| Cc1[nH]c2nc(-c3ccccn3)nn2c(=O)c1C(C)C [Example 7-28, 5-methyl-6-(1-methylethyl)-2-pyridin-2-yl[1,2,4]triazolo[1,5-a]pyrimidin-7(4H)-one] |  | > 100 |
| Cc1[nH]c2nc(C(C)C)nn2c(=O)c1C(C)C [Example 7-29, 5-methyl-2,6-bis(1-methylethyl)[1,2,4]triazolo[1,5-a]pyrimidin-7(4H)-one] |  | 35.4 |
| Cc1[nH]c2nc(N3CCOCC3)nn2c(=O)c1C(C)C [Example 7-30, 5-methyl-6-(1-methylethyl)-2-morpholin-4-yl[1,2,4]triazolo[1,5-a]pyrimidin-7(4H)-one] |  | > 100 |
| Cc1[nH]c2nc(CCCO)nn2c(=O)c1C(C)C [Example 7-37, 2-(3-hydroxypropyl)-5-methyl-6-(1-methylethyl)[1,2,4]triazolo[1,5-a]pyrimidin-7(4H)-one] | 66.5 |  |
| Cc1nc2[nH]c(C(C)(C)C)cc(=O)n2n1 [Example 7-38, 5-tert-butyl-2-methyl[1,2,4]triazolo[1,5-a]pyrimidin-7(4H)-one] |  | > 100 |
| Cc1nc2[nH]c(C(F)(F)C(F)(F)F)cc(=O)n2n1 [Example 7-41, 2-methyl-5-(pentafluoroethyl)[1,2,4]triazolo[1,5-a]pyrimidin-7(4H)-one] |  | > 100 |
| Cc1nc2[nH]c(C)c(C3CCCC3)c(=O)n2n1 [Example 7-45, 6-cyclopentyl-2,5-dimethyl[1,2,4]triazolo[1,5-a]pyrimidin-7(4H)-one] |  | > 100 |
| Cc1nc2[nH]c(C3CC3)cc(=O)n2n1 [Example 7-46, 5-cyclopropyl-2-methyl[1,2,4]triazolo[1,5-a]pyrimidin-7(4H)-one] |  | > 100 |

The next lines start with the values.

| IC50 [1] [µM] | IC50 [µM] | Structure (SMILES) |
| --- | --- | --- |
| 22.2 |  | CCc1c(C)[nH]c2nc(N)nn2c1=O [Example 7-3, 2-amino-6-ethyl-5-methyl-[1,2,4]triazolo[1,5-a]pyrimidin-7(4H)-one] |
| 27.8 |  | CCc1c(C)[nH]c2nc(C)nn2c1=O [Example 7-5, 6-ethyl-2,5-dimethyl-[1,2,4]triazolo[1,5-a]pyrimidin-7(4H)-one] |
| 32 |  | Cc1nc2[nH]c(C)c(C)c(=O)n2n1 [Example 7-7, 2,5,6-trimethyl[1,2,4]triazolo[1,5-a]pyrimidin-7(4H)-one] |
| 9.09 |  | CCc1c(C)[nH]c2nc(C(F)(F)F)nn2c1=O [Example 7-9, 6-ethyl-5-methyl-2-(trifluoromethyl)[1,2,4]triazolo[1,5-a]pyrimidin-7(4H)-one] |
| 4.28 |  | Cc1cc(=O)n2nc(-c3ccncc3)nc2[nH]1 [Example 7-10, 5-methyl-2-(pyridin-4-yl)-[1,2,4]triazolo[1,5-a]pyrimidin-7(4H)-one] |
| 27.9 |  | Cc1nc2[nH]c(C(F)(F)F)cc(=O)n2n1 [Example 7-11, 2-methyl-5-(trifluoromethyl)-[1,2,4]triazolo[1,5-a]pyrimidin-7(4H)-one] |
| 2.96 |  | CCOC(=O)c1[nH]c2nc(C)nn2c(=O)c1Cl [Example 7-13, ethyl 6-chloro-2-methyl-7-oxo-4,7-dihydro[1,2,4]triazolo[1,5-a]pyrimidine-5-carboxylate] |
| 34.9 |  | CCc1c(C)[nH]c2nc(C(=O)OC)nn2c1=O [Example 7-14, methyl 6-ethyl-5-methyl-7-oxo-4,7-dihydro[1,2,4]triazolo[1,5-a]pyrimidine-2-carboxylate] |
| 3.41 |  | Cc1[nH]c2nc(N)nn2c(=O)c1C(C)C [Example 7-16, 2-amino-5-methyl-6-(1-methylethyl)[1,2,4]triazolo[1,5-a]pyrimidin-7(4H)-one] |
| 48.6 |  | Cc1[nH]c2nc(C3CC3)nn2c(=O)c1C(C)C [Example 7-18, 2-cyclopropyl-5-methyl-6-(1-methylethyl)[1,2,4]triazolo[1,5-a]pyrimidin-7(4H)-one] |
| 3.97 |  | CCc1c(-c2ccccc2)[nH]c2nc(C)nn2c1=O [Example 7-20, 6-ethyl-2-methyl-5-phenyl[1,2,4]triazolo[1,5-a]pyrimidin-7(4H)-one] |
| 7.99 |  | Cc1nc2[nH]c(C)c(C(C)C)c(=O)n2n1 [Example 7-21, 2,5-dimethyl-6-(1-methylethyl)[1,2,4]triazolo[1,5-a]pyrimidin-7(4H)-one] |
| 33.7 |  | Cc1[nH]c2nc(-c3ccc(F)cc3)nn2c(=O)c1C(C)C [Example 7-24, 2-(4-fluorophenyl)-5-methyl-6-(1-methylethyl)[1,2,4]triazolo[1,5-a]pyrimidin-7(4H)-one] |
| 39.2 |  | Cc1nc2[nH]c(C)c(Cl)c(=O)n2n1 [Example 7-31, 6-chloro-2,5-dimethyl[1,2,4]triazolo[1,5-a]pyrimidin-7(4H)-one] |
| 2.07 |  | Cc1[nH]c2nc(C(F)(F)F)nn2c(=O)c1C(C)C [Example 7-32, 5-methyl-6-(1-methylethyl)-2-(trifluoromethyl)[1,2,4]triazolo[1,5-a]pyrimidin-7(4H)-one] |
| 4.24 |  | CCc1c(-c2ccn(C)n2)[nH]c2nc(C)nn2c1=O [Example 7-33, 6-ethyl-2-methyl-5-(1-methyl-1H-pyrazol-3-yl)[1,2,4]triazolo[1,5-a]pyrimidin-7(4H)-one] |
| 1.25 |  | Cc1[nH]c2nc(Cl)nn2c(=O)c1C(C)C [Example 7-34, 2-chloro-5-methyl-6-(1-methylethyl)[1,2,4]triazolo[1,5-a]pyrimidin-7(4H)-one] |
| 1.92 |  | Cc1[nH]c2nc(Br)nn2c(=O)c1C(C)C [Example 7-35, 2-bromo-5-methyl-6-(1-methylethyl)[1,2,4]triazolo[1,5-a]pyrimidin-7(4H)-one] |
| 25.4 |  | Cc1nc2[nH]c(-c3ccn(C)n3)cc(=O)n2n1 [Example 7-36, 2-methyl-5-(1-methyl-1H-pyrazol-3-yl)[1,2,4]triazolo[1,5-a]pyrimidin-7(4H)-one] |
| 8.07 |  | Cc1nc2[nH]c(-c3ccc(F)cc3)cc(=O)n2n1 [Example 7-39, 5-(4-fluorophenyl)-2-methyl[1,2,4]triazolo[1,5-a]pyrimidin-7(4H)-one] |
| 36.7 |  | Cc1nc2[nH]c(-c3ccoc3)cc(=O)n2n1 [Example 7-40, 5-furan-3-yl-2-methyl[1,2,4]triazolo[1,5-a]pyrimidin-7(4H)-one] |
| 21.1 |  | COc1c(C(F)(F)F)[nH]c2nc(C)nn2c1=O [Example 7-42, 6-methoxy-2-methyl-5-(trifluoromethyl)[1,2,4]triazolo[1,5-a]pyrimidin-7(4H)-one] |
| 23.2 |  | Cc1nc2[nH]c(-c3ccccn3)cc(=O)n2n1 [Example 7-43, 2-methyl-5-pyridin-2-yl[1,2,4]triazolo[1,5-a]pyrimidin-7(4H)-one] |
| 33.8 |  | Cc1nc2[nH]c(-c3ccco3)cc(=O)n2n1 [Example 7-44, 5-furan-2-yl-2-methyl[1,2,4]triazolo[1,5-a]pyrimidin-7(4H)-one] |
